Patent US7897582B2, “Oligonucleotide compositions and methods for the modulation of the expression of B7 protein” (Isis Pharmaceuticals, Inc., priority 2003, dated 2011)
Strand notation (5' to 3'): a small letter for the sugar, then the base; units joined by * are phosphorothioate-linked, units joined directly phosphodiester-linked; [ ] holds rarer units or linkages, { } end groups; capitals alone tell only the bases. e = 2'-O-(2-methoxyethyl) (MOE); [5mC] = 5-methylcytosine; d = 2'-deoxy (DNA)

Columns and labels:
Human B7-2 mRNA = Human B7-2 mRNA expression in electroporated THP-1 cells induced with LPS and dibutyryl cAMP; type: cell-based; conditions: THP-1 cells electroporated at 10 micromolar oligonucleotide, LPS and dibutyryl cAMP (500 μM) 16 hours
Description: (§1) The human promonocytic leukaemia cell line, THP-1 (American Type Culture Collection, Manassas, Va.) was maintained in RPMI 1640 growth media supplemented with 10% fetal calf serum (FCS; Life Technologies, Rockville, Md.). A total of 1×10^7 cells were electroporated at an oligonucleotide concentration of 10 micromolar in 2 mm cuvettes, using an Electrocell Manipulator 600 instrument (Biotechnologies and Experimental Research, Inc.) employing 200 V, 1000 μF. Electroporated cells were then transferred to petri dishes and allowed to recover for 16 hrs Cells were then induced with LPS and dibutyryl cAMP (500 μM) for 16 hours. RNA was isolated and processed as described in previous examples.

Human B7-1 mRNA = Human B7-1 mRNA expression in electroporated, LPS-induced THP-1 cells; type: cell-based; conditions: THP-1 cells electroporated at 10 micromolar oligonucleotide, LPS 1 μg/ml 16 hours
Description: as §1, with “hrs.” for “hrs”, “at a final concentration of 1 μg/ml” for “and dibutyryl cAMP (500 μM)”

Row | Substance | % mRNA EXPRESSION (Human B7-2 mRNA) | % mRNA INHIBITION (Human B7-2 mRNA) | % mRNA EXPRESSION (Human B7-1 mRNA) | % mRNA INHIBITION (Human B7-1 mRNA)
1 | 113136 (antisense eA*eA*eA*eT*eG*d[5mC]*d[5mC]*dT*dG*dT*d[5mC]*d[5mC]*dA*d[5mC]*dT*eG*eT*eA*eG*e[5mC]) [compound 113136] | 81% | 19% |  | 
2 | 113137 (antisense e[5mC]*eT*eT*e[5mC]*eA*dG*dA*dG*dG*dA*dG*d[5mC]*dA*dG*d[5mC]*eA*e[5mC]*e[5mC]*eA*eG) [compound 113137] | 57% | 43% |  | 
3 | 113138 (antisense eG*eA*eA*eT*e[5mC]*dT*dT*d[5mC]*dA*dG*dA*dG*dG*dA*dG*e[5mC]*eA*eG*e[5mC]*eA) [compound 113138] | 12% | 88% |  | 
4 | 113140 (antisense eG*e[5mC]*eT*eT*eT*dG*dG*dT*dT*dT*dT*dG*dA*dG*dA*eG*eT*eT*eT*eG) [compound 113140] | 214% |  |  | 
5 | 113141 (antisense eA*eG*eG*e[5mC]*eT*dT*dT*dG*dG*dT*dT*dT*dT*dG*dA*eG*eA*eG*eT*eT) [compound 113141] | 126% |  |  | 
6 | 113142 (antisense eG*e[5mC]*eT*e[5mC]*eA*d[5mC]*dT*d[5mC]*dA*dG*dG*d[5mC]*dT*dT*dT*eG*eG*eT*eT*eT) [compound 113142] | 35% | 65% |  | 
7 | 113143 (antisense eG*eG*eT*e[5mC]*e[5mC]*dT*dG*d[5mC]*d[5mC]*dA*dA*dA*dA*dT*dA*e[5mC]*eT*eA*e[5mC]*eT) [compound 113143] | 118% |  |  | 
8 | 113144 (antisense eA*eG*e[5mC]*e[5mC]*e[5mC]*dT*dT*dG*dT*d[5mC]*d[5mC]*dT*dT*dG*dA*eT*e[5mC]*eT*eG*eA) [compound 113144] | 41% | 59% |  | 
9 | 113145 (antisense eT*eG*eT*eG*eG*dG*d[5mC]*dT*dT*dT*dT*dT*dG*dT*dG*eA*eT*eG*eG*eA) [compound 113145] | 46% | 54% |  | 
10 | 113146 (antisense eA*eA*eT*e[5mC]*eA*dT*dT*d[5mC]*d[5mC]*dT*dG*dT*dG*dG*dG*e[5mC]*eT*eT*eT*eT) [compound 113146] | 32% | 68% |  | 
11 | 113147 (antisense e[5mC]*e[5mC]*eG*eT*eG*dT*dA*dT*dA*dG*dA*dT*dG*dA*dG*e[5mC]*eA*eG*eG*eT) [compound 113147] | 35% | 65% |  | 
12 | 113148 (antisense eA*e[5mC]*e[5mC]*eG*eT*dG*dT*dA*dT*dA*dG*dA*dT*dG*dA*eG*e[5mC]*eA*eG*eG) [compound 113148] | 23% | 77% |  | 
13 | 113149 (antisense eT*e[5mC]*eA*eT*e[5mC]*dT*dT*d[5mC]*dT*dT*dA*dG*dG*dT*dT*e[5mC]*eT*eG*eG*eG) [compound 113149] | 29% | 71% |  | 
14 | 113150 (antisense eA*e[5mC]*eA*eA*eG*d[5mC]*dT*dG*dA*dT*dG*dG*dA*dA*dA*e[5mC]*eG*eT*e[5mC]*eG) [compound 113150] | 19% | 81% |  | 
15 | 113151 (antisense eT*eG*e[5mC]*eT*e[5mC]*dG*dT*dA*dA*d[5mC]*dA*dT*d[5mC]*dA*dG*eG*eG*eA*eA*eT) [compound 113151] | 208% |  |  | 
16 | 113152 (antisense eA*eA*eG*eA*eT*dG*dG*dT*d[5mC]*dA*dT*dA*dT*dT*dG*e[5mC]*eT*e[5mC]*eG*eT) [compound 113152] | 89% | 11% |  | 
17 | 113153 (antisense e[5mC]*eG*e[5mC]*eG*eT*d[5mC]*dT*dT*dG*dT*d[5mC]*dA*dG*dT*dT*eT*e[5mC]*e[5mC]*eA*eG) [compound 113153] | 19% | 81% |  | 
18 | 113154 (antisense e[5mC]*eA*eG*e[5mC]*eT*dG*dT*dA*dA*dT*d[5mC]*d[5mC]*dA*dA*dG*eG*eA*eA*eT*eG) [compound 113154] | 63% | 37% |  | 
19 | 113155 (antisense eG*eG*eG*e[5mC]*eT*dT*d[5mC]*dA*dT*d[5mC]*dA*dG*dA*dT*d[5mC]*eT*eT*eT*e[5mC]*eA) [compound 113155] | 13% | 87% |  | 
20 | 113156 (antisense e[5mC]*eA*eT*eG*eT*dA*dT*d[5mC]*dA*d[5mC]*dT*dT*dT*dT*dG*eT*e[5mC]*eG*e[5mC]*eA) [compound 113156] | 83% | 17% |  | 

Row | Substance | % mRNA EXPRESSION (Human B7-2 mRNA) | % mRNA INHIBITION (Human B7-2 mRNA) | % mRNA EXPRESSION (Human B7-1 mRNA) | % mRNA INHIBITION (Human B7-1 mRNA)
21 | 113157 (antisense eA*eG*e[5mC]*e[5mC]*e[5mC]*d[5mC]*d[5mC]*dT*dT*dA*dT*dT*dA*d[5mC]*dT*e[5mC]*eA*eT*eG*eG) [compound 113157] | 13% | 87% |  | 
22 | 113159 (antisense eA*eG*eT*e[5mC]*eT*d[5mC]*d[5mC]*dT*d[5mC]*dT*dT*dG*dG*d[5mC]*dA*eT*eA*e[5mC]*eG*eG) [compound 113159] | 43% | 57% |  | 
23 | 113160 (antisense e[5mC]*e[5mC]*e[5mC]*eA*eT*dA*dA*dG*dT*dG*dT*dG*d[5mC]*dT*d[5mC]*eT*eG*eA*eA*eG) [compound 113160] | 09% | 91% |  | 
24 | 113489 (antisense e[5mC]*e[5mC]*e[5mC]*eT*e[5mC]*d[5mC]*dA*dG*dT*dG*dA*dT*dG*dT*dT*eT*eA*e[5mC]*eA*eA) [compound 113489] |  |  | 122% | 
25 | 113490 (antisense eG*eA*eA*eG*eA*d[5mC]*d[5mC]*d[5mC]*dT*d[5mC]*d[5mC]*dA*dG*dT*dG*eA*eT*eG*eT*eT) [compound 113490] |  |  | 183% | 
26 | 113491 (antisense e[5mC]*eG*eT*eA*eG*dA*dA*dG*dA*d[5mC]*d[5mC]*d[5mC]*dT*d[5mC]*d[5mC]*eA*eG*eT*eG*eA) [compound 113491] |  |  | 179% | 
27 | 113492 (antisense eT*eT*e[5mC]*e[5mC]*e[5mC]*dA*dG*dG*dT*dG*d[5mC]*dA*dA*dA*dA*e[5mC]*eA*eG*eG*e[5mC]) [compound 113492] |  |  | 27% | 73%
28 | 113493 (antisense eT*eG*eG*e[5mC]*eT*dT*d[5mC]*dA*dG*dA*dT*dG*d[5mC]*dT*dT*eA*eG*eG*eG*eT) [compound 113493] |  |  | 488% | 
29 | 113494 (antisense e[5mC]*e[5mC]*eT*e[5mC]*e[5mC]*dG*dT*dG*dT*dG*dT*dG*dG*d[5mC]*d[5mC]*e[5mC]*eA*eT*eG*eG) [compound 113494] |  |  | 77% | 23%
30 | 113495 (antisense eG*eG*eT*eG*eA*dT*dG*dT*dT*d[5mC]*d[5mC]*d[5mC]*dT*dG*d[5mC]*e[5mC]*eT*e[5mC]*e[5mC]*eG) [compound 113495] |  |  | 43% | 57%
31 | 113496 (antisense eG*eA*eT*eG*eG*dT*dG*dA*dT*dG*dT*dT*d[5mC]*d[5mC]*d[5mC]*eT*eG*e[5mC]*e[5mC]*eT) [compound 113496] |  |  | 71% | 29%
32 | 113497 (antisense eA*eG*eG*eT*eA*dT*dG*dG*dA*d[5mC]*dA*d[5mC]*dT*dT*dG*eG*eA*eT*eG*eG) [compound 113497] |  |  | 78% | 22%
33 | 113498 (antisense eG*eA*eA*eA*eG*dA*d[5mC]*d[5mC]*dA*dG*d[5mC]*d[5mC]*dA*dG*d[5mC]*eA*e[5mC]*e[5mC]*eA*eA) [compound 113498] |  |  | 37% | 63%
34 | 113499 (antisense e[5mC]*eA*eG*e[5mC]*eG*dT*dT*dG*d[5mC]*d[5mC]*dA*d[5mC]*dT*dT*d[5mC]*eT*eT*eT*e[5mC]*eA) [compound 113499] |  |  | 25% | 75%
35 | 113500 (antisense eG*eT*eG*eA*e[5mC]*d[5mC]*dA*d[5mC]*dA*dG*dG*dA*d[5mC]*dA*dG*e[5mC]*eG*eT*eT*eG) [compound 113500] |  |  | 83% | 17%
36 | 113501 (antisense eA*eG*eA*eT*eG*d[5mC]*dG*dA*dG*dT*dT*dT*dG*dT*dG*e[5mC]*e[5mC]*eA*eG*e[5mC]) [compound 113501] |  |  | 36% | 64%
37 | 113502 (antisense e[5mC]*e[5mC]*eT*eT*eT*dT*dG*d[5mC]*d[5mC]*dA*dG*dT*dA*dG*dA*eT*eG*e[5mC]*eG*eA) [compound 113502] |  |  | 26% | 74%
38 | 113503 (antisense e[5mC]*eG*eG*eT*eT*d[5mC]*dT*dT*dG*dT*dA*d[5mC]*dT*d[5mC]*dG*eG*eG*e[5mC]*e[5mC]*eA) [compound 113503] |  |  | 65% | 35%
39 | 113504 (antisense e[5mC]*eG*e[5mC]*eA*eG*dA*dG*d[5mC]*d[5mC]*dA*dG*dG*dA*dT*d[5mC]*eA*e[5mC]*eA*eA*eT) [compound 113504] |  |  | 46% | 54%
